According to patent publication EP1801112A1, “Bicyclic pyrimidines and bicyclic 3,4-dihydropyrimidines as inhibitors of cellular proliferation” (Warner-Lambert Company LLC, priority 1998, dated 1999):

Key:
[1] = target: cdk2/cyclinE (Homo sapiens, UniProt P24941); test: Cyclin-Dependent Kinase Assay cdk2/cyclinE; assay type: biochemical
Description: (§1) Cyclin-Dependent Kinase Assays (cdk2/cyclinE, cdk2/cyclinA, cdc2/cyclinB)
(§2) All components except the ATP were added to the wells, and the plate was placed on a plate mixer for 2 minutes. The reaction was begun by addition of [^32P]ATP, and the plate was incubated at 25°C for 15 minutes. The reaction was terminated by addition of 0.1 mL of 20% TCA. The plate was kept at 4°C for at least 1 hour to allow the substrate to precipitate. The wells were then washed five times with 0.2 mL of 10% TCA and ^32P incorporation determined with a beta plate counter (Wallac Inc., Gaithersburg, MD).

[2] = target: cdk4/D (Homo sapiens, UniProt P11802); test: Cyclin-Dependent Kinase 4 (cdk4) Assay; assay type: biochemical
cdk4/D, sequence (P11802 whole entry): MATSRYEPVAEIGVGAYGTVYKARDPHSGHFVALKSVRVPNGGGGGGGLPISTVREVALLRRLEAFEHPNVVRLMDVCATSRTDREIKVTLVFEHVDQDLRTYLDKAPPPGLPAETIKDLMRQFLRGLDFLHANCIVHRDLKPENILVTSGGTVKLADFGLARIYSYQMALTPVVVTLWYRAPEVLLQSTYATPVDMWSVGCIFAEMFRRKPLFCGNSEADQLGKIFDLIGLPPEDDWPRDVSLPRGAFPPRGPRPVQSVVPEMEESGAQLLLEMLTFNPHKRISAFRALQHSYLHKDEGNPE
cdk4/D, sequence (P24385 whole entry, further chain): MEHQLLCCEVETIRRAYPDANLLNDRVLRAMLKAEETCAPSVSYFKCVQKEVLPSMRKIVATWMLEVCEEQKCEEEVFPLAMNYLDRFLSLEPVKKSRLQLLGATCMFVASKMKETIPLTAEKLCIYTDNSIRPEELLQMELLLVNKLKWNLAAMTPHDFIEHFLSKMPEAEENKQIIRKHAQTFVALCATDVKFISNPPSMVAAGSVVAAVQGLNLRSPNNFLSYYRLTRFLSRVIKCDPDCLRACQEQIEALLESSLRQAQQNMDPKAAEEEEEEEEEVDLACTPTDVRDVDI
Description: A typical assay, for instance, measures inhibitory activity against the cyclin D dependent kinase 4 enzyme (cdk4/D). […] The cdk4 assay was carried out as follows.
Cyclin-Dependent Kinase 4 (cdk4) Assay
Enzyme assays for IC50 determinations (Tables 1 and 2) and kinetic evaluation were performed in 96 well filter plates (Millipore MADVN6550). The total volume was 0.1 mL containing a final concentration of 20 mM TRIS (tris[hydroxymethyl]aminomethane), at pH 7.4, 50 mM NaCl, 1 mM dithiothreitol, 10 mM MgCl2, 25 µM ATP containing 0.25 µCi of [^32P]ATP, 20 ng of cdk4, 1 µg of retinoblastoma, and appropriate dilutions of a compound of the present invention. All components except the ATP were added to the wells, and the plate was placed on a plate mixer for 2 minutes. The reaction was started by adding [^32P]ATP and the plate was incubated at 25°C for 15 minutes. The reaction was terminated by addition of 0.1 mL of 20% trichloroacetic acid (TCA). The plate was kept at 4°C for at least 1 hour to allow the substrate to precipitate. The wells were then washed five times with 0.2 mL of 10% TCA and ^32P incorporation was determined with a beta plate counter (Wallac Inc., Gaithersburg, MD).

[3] = target: cdc2/cyclinB (Homo sapiens, UniProt P06493); test: Cyclin-Dependent Kinase Assay cdc2/cyclinB; assay type: biochemical
cdc2/cyclinB, sequence (P06493 whole entry): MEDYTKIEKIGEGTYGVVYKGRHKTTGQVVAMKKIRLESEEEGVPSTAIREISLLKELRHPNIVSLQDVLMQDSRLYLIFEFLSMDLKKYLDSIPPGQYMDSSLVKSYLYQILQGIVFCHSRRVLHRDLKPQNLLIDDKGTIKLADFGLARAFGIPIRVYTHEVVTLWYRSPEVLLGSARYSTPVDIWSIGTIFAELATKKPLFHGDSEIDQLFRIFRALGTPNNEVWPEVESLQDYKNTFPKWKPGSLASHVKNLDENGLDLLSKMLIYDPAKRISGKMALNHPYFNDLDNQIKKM
cdc2/cyclinB, sequence (P14635 whole entry, further chain): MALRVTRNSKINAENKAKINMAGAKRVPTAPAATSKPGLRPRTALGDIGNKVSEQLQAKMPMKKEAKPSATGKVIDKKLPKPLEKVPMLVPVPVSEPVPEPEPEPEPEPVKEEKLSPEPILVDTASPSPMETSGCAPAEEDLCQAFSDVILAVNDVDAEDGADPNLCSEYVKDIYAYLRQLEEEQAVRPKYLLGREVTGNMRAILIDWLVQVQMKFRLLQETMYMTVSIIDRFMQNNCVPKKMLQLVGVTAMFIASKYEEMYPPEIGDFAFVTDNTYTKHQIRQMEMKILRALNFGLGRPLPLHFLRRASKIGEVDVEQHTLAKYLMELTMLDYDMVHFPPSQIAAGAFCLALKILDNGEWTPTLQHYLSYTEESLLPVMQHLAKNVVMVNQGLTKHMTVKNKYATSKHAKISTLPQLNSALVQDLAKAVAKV
Description: as §1, §2

[4] = target: T1, c-Src (Homo sapiens, UniProt P12931); test: c-Src protein kinase assay; assay type: biochemical; settings: poly GluTyr substrate, 5 µM ATP
T1 construct: made in house; host or cells: baculovirus infected insect cells
T1 sequence (P12931 whole entry): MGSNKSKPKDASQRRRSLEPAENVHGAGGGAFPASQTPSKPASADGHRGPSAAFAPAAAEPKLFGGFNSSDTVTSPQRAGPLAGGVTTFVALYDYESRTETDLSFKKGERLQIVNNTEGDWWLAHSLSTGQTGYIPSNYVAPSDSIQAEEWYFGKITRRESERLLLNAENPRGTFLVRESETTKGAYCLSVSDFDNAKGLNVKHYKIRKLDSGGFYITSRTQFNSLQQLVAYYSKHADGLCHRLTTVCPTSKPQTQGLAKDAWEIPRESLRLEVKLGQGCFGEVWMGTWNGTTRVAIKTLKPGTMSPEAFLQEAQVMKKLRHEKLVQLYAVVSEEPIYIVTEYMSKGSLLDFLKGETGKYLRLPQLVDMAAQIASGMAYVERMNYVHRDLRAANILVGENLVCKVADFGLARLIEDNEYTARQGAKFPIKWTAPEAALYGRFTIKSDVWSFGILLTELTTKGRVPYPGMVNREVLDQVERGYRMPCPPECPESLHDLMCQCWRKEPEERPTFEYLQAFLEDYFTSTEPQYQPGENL
Description: The assay was carried out as follows: c-Src kinase was purified from baculovirus infected insect cell lysates using an antipeptide monoclonal antibody directed against the N-terminal amino acids (amino acids 2-17) of c-Src. The antibody, covalently linked to 0.65 µm latex beads, was added to a suspension of insect cell lysis buffer comprised of 150 mM NaCl, 50 mM Tris pH 7.5, 1 mM DTT, 1% NP-40, 2 mM EGTA, 1 mM sodium vanadate, 1 mM PMSF, 1 µg/mL each of leupeptin, pepstatin, and aprotinin. Insect cell lysate containing c-Src protein was incubated with these beads for 3 to 4 hours at 4°C with rotation. At the end of the lysate incubation, the beads were rinsed three times in lysis buffer, resuspended in lysis buffer containing 10% glycerol, and frozen. These latex beads were thawed, rinsed three times in assay buffer (40 mM Tris, pH 7.5, […]) and suspended in the same buffer. In a Millipore 96-well plate with a 0.65 µm polyvinylidine membrane bottom were added the reaction components: 10 µL c-Src beads, 10 µL of 2.5 mg/mL poly GluTyr substrate, 5 µM ATP containing 0.2 µCi labeled ^32P-ATP, 5 µL DMSO containing inhibitors or as a solvent control, and buffer to make the final volume 125 µL. The reaction was started at room temperature by addition of the ATP and quenched 10 minutes later by the addition of 125 µL of 30% TCA, 0.1 M sodium pyrophosphate for 5 minutes on ice. […] The filters were then punched, counted in a liquid scintillation counter, and the data examined for inhibitory activity in comparison to a known inhibitor such as erbstatin. […]

[5] = target: cdk2/cyclinA (Homo sapiens, UniProt P24941); test: Cyclin-Dependent Kinase Assay cdk2/cyclinA; assay type: biochemical
Description: as §1, §2

[6] = target: T2, PDGF-β receptor tyrosine kinase (Mus musculus, UniProt P05622); test: PDGF Receptor Tyrosine Kinase Assay; assay type: biochemical; settings: glutamate-tyrosine co-polymer substrate, 50 µM ATP
T2 construct: amplify a fragment of DNA that codes for the intracellular tyrosine kinase domain; made in house; host or cells: SF9 insect cells (baculovirus); crude cell lysate used
T2 sequence (P05622 599-961 limits assumed): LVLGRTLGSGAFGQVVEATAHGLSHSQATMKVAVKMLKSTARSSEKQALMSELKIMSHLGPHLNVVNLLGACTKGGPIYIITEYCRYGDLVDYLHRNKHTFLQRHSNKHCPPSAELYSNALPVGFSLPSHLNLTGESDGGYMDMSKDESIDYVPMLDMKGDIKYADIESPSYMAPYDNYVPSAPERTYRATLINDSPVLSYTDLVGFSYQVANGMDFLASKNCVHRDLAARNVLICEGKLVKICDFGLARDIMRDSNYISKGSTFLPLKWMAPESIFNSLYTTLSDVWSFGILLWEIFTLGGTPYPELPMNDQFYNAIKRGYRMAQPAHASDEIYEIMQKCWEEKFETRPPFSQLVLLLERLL
Source text: (§3) PDGF and FGF Receptor Tyrosine Kinase Assays
(§4) Full-length cDNAs for the mouse PDGF-β and human FGF-1 (flg) receptor tyrosine kinases were obtained from J. Escobedo and prepared as described in J. Biol. Chem., 1991;262:1482-1487. PCR primers were designed to amplify a fragment of DNA that codes for the intracellular tyrosine kinase domain. The fragment was inserted into a baculovirus vector, cotransfected with AcMNPV DNA, and the recombinant virus isolated. SF9 insect cells were infected with the virus to overexpress the protein, and the cell lysate was used for the assay. Assays were performed in 96-well plates (100 µL/incubation/well), and conditions were optimized to measure the incorporation of ^32P from γ^32P-ATP into a glutamate-tyrosine co-polymer substrate. Briefly, to each well was added 82.5 µL of incubation buffer containing 25 mM Hepes (pH 7.0), 150 mM NaCl, 0.1% Triton X-100, 0.2 mM PMSF, 0.2 mM Na3VO4, 10 mM MnCl2, and 750 µg/mL of Poly (4:1) glutamate-tyrosine followed by […] of inhibitor and 5 µL of enzyme lysate (7.5 µg/µL FGF-TK or 6.0 µg/µL PDGF-TK) to initiate the reaction. Following a 10 minute incubation at 25°C, 10 mL of γ^32P-ATP (0.4 µCi plus 50 µM ATP) was added to each well, and samples were incubated for an additional 10 minutes at 25°C. The reaction was terminated by the addition of 100 µL of 30% trichloroacetic acid (TCA) containing 20 mM sodium pyrophosphate and precipitation of material onto glass fiber mats (Wallac). Filters were washed three times with 15% TCA containing 100 mM sodium pyrophosphate, and the radioactivity retained on the filters counted in a Wallac 1250 Betaplate reader. Nonspecific activity was defined as radioactivity retained on the filters following incubation of samples with buffer alone (no enzyme). Specific enzymatic activity (enzyme plus buffer) was defined as total activity minus nonspecific activity. […]

[7] = target: T3, FGF-1 (flg) receptor tyrosine kinase (Homo sapiens, UniProt P11362); test: FGF Receptor Tyrosine Kinase Assay; assay type: biochemical; settings: glutamate-tyrosine co-polymer substrate, 50 µM ATP
T3 construct: amplify a fragment of DNA that codes for the intracellular tyrosine kinase domain; made in house; host or cells: SF9 insect cells (baculovirus); crude cell lysate used
T3 sequence (P11362 478-767 limits assumed): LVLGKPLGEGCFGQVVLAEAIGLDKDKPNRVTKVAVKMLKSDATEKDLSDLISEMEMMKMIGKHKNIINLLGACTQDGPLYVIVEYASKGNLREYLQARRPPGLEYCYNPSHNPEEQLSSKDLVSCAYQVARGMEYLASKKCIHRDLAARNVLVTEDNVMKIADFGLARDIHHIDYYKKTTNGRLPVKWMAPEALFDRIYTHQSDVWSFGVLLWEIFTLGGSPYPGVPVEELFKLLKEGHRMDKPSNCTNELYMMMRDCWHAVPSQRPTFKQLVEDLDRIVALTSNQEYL
Description: as §3
as §4, with “PCR” for “Full-length cDNAs for the mouse PDGF-β and human FGF-1 (flg) receptor tyrosine kinases were obtained from J. Escobedo and prepared as described in J. Biol. Chem., 1991;262:1482-1487. PCR”, “Following a 10 minute incubation at 25°C, 10 mL of γ^32P-ATP (0.4 µCi plus 50 µM ATP) was added to each well, and samples were incubated for an additional 10 minutes at 25°C.” left out, “Filters were washed three times with 15% TCA containing 100 mM sodium pyrophosphate, and the radioactivity retained on the filters counted in a Wallac 1250 Betaplate reader.” left out

[8] = test system: human umbilical vein endothelial cells; test: Human Umbilical Vein Endothelial Cell (HUVEC) Proliferation Assay; assay type: cell-based; settings: 96 h, four days incubation, Sulphorhodamine B staining
Description: The compounds of Formula I are useful for treating cell proliferative disorders concerning angiogenesis and have been evaluated in a human umbilical vein endothelial cell in vitro assay. The assay described below is used to determine the anti-proliferative effects of the invention compounds on human umbilical vein endothelial cells, and the results are shown in Table 7.
Human Umbilical Vein Endothelial Cell (HUVEC) Proliferation Assay
Ninety-six well tissue culture plates are seeded with 100 µL of cells in all wells of rows A->G with row H remaining empty as a blank. HUVEC (Clonetics, San Diego, CA) are grown in endothelial growth medium (EGM media, Clonetics), containing 2% fetal bovine serum. The cell seed density for HUVEC cells is 20,000 per mL. C6 cells (ATCC Cat. No. CCL-107) are seeded at 6000 per mL in F10 medium (nutrient mixture Hemes) supplemented with 15% horse serum, 2.5% fetal bovine serum, and 6.0 mL 200 mM Glutamine per 600 mL medium. A90 cells (Suny, Buffalo, NY) are also seeded at 6000 per mL, but they are grown in RPMI 1640 (Roswell Park Memorial Institute) plus 10% fetal bovine serum. Unless noted otherwise, tissue culture media and components are from GIBCO. The cells are allowed to incubate at 37°C, 5% CO2, and 100% relative humidity for 16-24 hours.
Invention compounds are prepared by dissolving them in DMSO at a concentration of 5 mM, followed by dilution to 50 µM in EGM media. One hundred microliters of the compounds are applied to duplicate wells in column 1 of the previously prepared cell plates. Column 1 row H receives 100 µL of EGM media. The compounds in column 1 are diluted across the plates using serial twofold dilutions.
The plates are incubated as above for an additional four days before being stained with Sulphorhodamine B. Staining is performed as follows: The media is removed from the plates, and the cells are fixed using 10% trichloroacetic acid for 30 minutes at 4°C. Following fixation, the plates are washed five times with distilled water after which 100 µL of Sulphorhodamine B is added to each well. Sulphorhodamine B is dissolved in 1% acetic acid to a concentration of .075%. Following staining, excess stain is removed from the wells, and the plates are washed four times with 1% acetic acid. The plates are allowed to air dry before the bound dye is solubilized in 100 µL of 10 mM unbuffered TRIS base. Absorbance is measured on a 96 well plate reader at […] using a reference filter wavelength of 630 nm. […] Sulphorhodamine B and TRIS are from Sigma Chemical Company. Acetic acid and trichloroacetic acid are from Mallinckrodt AR.

SMILES	IC50 [1] [nM]	IC50 [2] [nM]	IC50 [3] [nM]	IC50 [4] [nM]	IC50 [5] [nM]	IC50 [6] [µM]	IC50 [7] [µM]	IC50 [8] [nM]
O=C1NCc2cnc(Nc3ccc(N4CCCC(O)C4)cc3)nc2N1C1CCCC1 (stereo not drawn) [Example 16, 1-Cyclopentyl-7-[4-(3-hydroxypiperidin-1-yl)phenylamino]-3,4-dihydropyrimido[4,5-d]pyrimidin-2(1H)-one]	1500	630	14900	4120	640	0.83		
CC1CN(c2ccc(Nc3ncc4c(n3)N(C3CCCC3)C(=O)NC4)cc2)CC(C)N1 (stereo not drawn) [Example 18, 1-Cyclopentyl-7-[4-(3,5-dimethylpiperazin-1-yl)phenylamino]-3,4-dihydropyrimido[4,5-d]pyrimidin-2(1H)-one]	2000	350		400		0.21		
O=c1ncc2cnc(Nc3ccc(-n4cccn4)cc3)nc2n1C1CCCC1 [Example 36, 1-Cyclopentyl-7-[4-(pyrazol-1-yl)phenylamino]pyrimido[4,5-d]pyrimidin-2(1H)-one]	2440	435	16100		1330	> 50	> 50	
CCN(CC)CCOc1ccc(Nc2ncc3c(n2)N(CC)C(=O)N(c2cc(OC)cc(OC)c2)C3)cc1 [Example 53a, 7-[4-(2-Diethylamino-ethoxy)-phenylamino]-3-(3,5-dimethoxy-phenyl)-1-ethyl-3,4-dihydro-pyrimido[4,5-d]pyrimidin-2(1H)-one]						< 0.5	0.02	
CCN1C(=O)N(c2cc(OC)cc(OC)c2)Cc2cnc(NCCCCN3CCN(C)CC3)nc21 [Example 58, 3-(3,5-Dimethoxy-phenyl)-1-ethyl-7-[4-(4-methyl-piperazin-1-yl)-butylamino]-3,4-dihydro-pyrimido[4,5-d]pyrimidin-2(1H)-one]								134
CCN1C(=O)N(c2cc(OC)cc(OC)c2)Cc2cnc(NCCCCCN3CCN(C)CC3)nc21 [Example 59, 3-(3,5-Dimethoxy-phenyl)-1-ethyl-7-[5-(4-methyl-piperazin-1-yl)-pentylamino]-3,4-dihydro-pyrimido[4,5-d]pyrimidin-2(1H)-one]								112
CCN(CC)CCCNc1ncc2c(n1)N(CC)C(=O)N(c1cc(OC)cc(OC)c1)C2 [Example 60, 7-(3-Diethylamino-propylamino)-3-(3,5-dimethoxy-phenyl)-1-ethyl-3,4-dihydro-pyrimido[4,5-d]pyrimidin-2(1H)-one]								943
CCN(CC)CCCCNc1ncc2c(n1)N(CC)C(=O)N(c1cc(OC)cc(OC)c1Cl)C2 [Example 65, 3-(2-Chloro-3,5-dimethoxy-phenyl)-7-(4-diethylamino-butylamino)-1-ethyl-3,4-dihydro-pyrimido[4,5-d]pyrimidin-2(1H)-one]								36
C=CCn1c(=O)c2cnc(Nc3ccc(N4CCN(C)CC4)cc3)nc2n(C(C)C)c1=O [Example 70, 3-Allyl-1-isopropyl-7-[4-(4-methylpiperazin-1-yl)phenylamino]-1H-pyrimido[4,5-d]pyrimidine-2,4-dione]		3450	> 40000		> 40000	> 50	> 50	
